Our source for the BrdU incorporation and apoptotic index values is US20180078615A1, “USE OF CCL2 TO INHIBIT ABNORMAL UTERINE BLEEDING” (UNIVERSITY OF SOUTH FLORIDA, priority 2015, published 2018).

The test system of experiment [1] is VSMCs. The experiment in a line: VSMC proliferation assay by BrdU incorporation. Format: cell-based, human. To be noted: 10^−7 M, 48-h treatment, mean±SEM; control 0.81±0.03. The protocol:
(§1) VSMCs were grown in 96-well plates or 8-well chamber slides and incubated with 10^−7 M of MPA (Sigma-Aldrich) or ETO (Organon) or P4 (Sigma-Aldrich) or vehicle±rCCL2 (R&D Systems)±STAT1 inhibitor, 5′-methyl-thioadenosine (MTA; EMD Millipore) (19) for 48 or 72 h. VSMCs were then analyzed for apoptosis by an ELISA based apoptosis kit (Roche) or cleaved-caspase 3 immunostaining. VSMC proliferation was measured by BrdU incorporation Kit (Cell Signaling). (See further details in SI Materials and Methods).
VSMCs were thawed and cultured in T-75 cell culture flasks in medium 231 (M231; Life Technologies) with smooth muscle growth supplement (5% FBS; 2 ng/mL human basic fibroblast growth factor, 0.5 ng/mL human epidermal growth factor, 5 ng/mL heparin, 0.2 μg/mL insulin and 5 μg/mL BSA; Life Technologies) with 100 U/mL penicillin, 100 μg/mL streptomycin, and 0.25 μg/mL fungizone. Confluent VSMCs were washed twice with 1×PBS to remove residual serum, and then passaged (5,000 cells per well) in 96-well plates and incubated in parallel in M231 with 1% charcoal striped FBS with 0.1% ethanol (vehicle, control), 10^−7 M MPA (Sigma-Aldrich), 10^−7 M ETO (Organon), or 10^−7 M P4 (Sigma-Aldrich)±rCCL2 (monocyte chemotactic protein-1; R&D Systems)±STAT1 inhibitor, 5′-methyl-thioadenosine (MTA; EMD Millipore) for 48 or 72 h.
BrdU (Cell Signaling) 1× in 100-μL M231 was added to each well during the final 24 h of incubation. At the end of 48- or 72-h incubation period, medium was removed and the wells washed twice with ice-cold PBS. VSMC proliferation was measured using BrdU cell proliferation Kit (Cell Signaling) at room temperature. Cells was incubated in 100 μL per well of the fixing/denaturing solution for 30 min, and then replaced by 100 μL per well BrdU detection antibody solution for 1 h. Following three rinses with wash buffer, plates were incubated in HRP-conjugated secondary antibody (100 μL per well) for 30 min. After three additional rinses with wash buffer, tetramethylbenzidine substrate solution (100 μL per well) was added for 20 min and the reaction stopped by adding 100 μL per well STOP solution. Absorbance was measured at 450 nm using Spectra Max190 microplate reader (Molecular Devices) to detect BrdU incorporation in each well.
(In general: Dividing cells build labelled thymidine or BrdU into new DNA.)

In experiment [2] the test system is VSMCs. Put plainly: VSMC apoptosis assay (ELISA, cleaved caspase-3 immunostaining, nuclear fragmentation). Format: cell-based, human. To be noted: 10^−7 M, 48 h, vs control. The protocol: as §1
This assay detects late-stage apoptosis by quantifying specific mono- and oligonucleosomes in the cytoplasmic fraction of cell lysates using mouse monoclonal antibodies directed against DNA and histones. In late-stage apoptosis (following nuclear fragmentation), cell cytoplasm contains mono- and oligonucleosomes, absent in normal (nonapoptotic) cells. The nucleosomes contained in the sample bind via their histone component to the immobilized antihistone antibody. Anti-DNA peroxidase reacts with the DNA part in the nucleosome. After removal of unbound peroxidase conjugate, the amount of peroxidase retained in the immunocomplex is detected by measuring colorimetric reaction.
Apoptosis index was determined in a second set of experiments. VSMC cultures (10,000 cells per wells) were incubated in 96-well plates with the treatments described above, at room temperature. Briefly, at the end of 48- or 72-h incubation periods, cells were washed three times in ice-cold PBS and cell lysate prepared by incubating each well in 200-μL lysis buffer for 30 min, followed by centrifugation at 200×g for 10 min. Duplicate 20-μL supernatant of cytoplasmic fractions from each treatment were carefully pipetted into streptavidin-coated microplates. A 20-μL VSMC culture supernatant devoid of cell fractions was used as a negative control, and 1-, 5-, 10-, and 20-μL supernatants containing camptothecin-induced apoptotic cell fractions were used as positive controls (ELISA based cell death detection kit^plus, Roche Applied Science). Incubation buffer was used as background control (Roche Applied Science). Then, each well was brought to 100 μL by adding immunoreagent (peroxidase-conjugated anti-DNA complex) and incubated by gentle shaking (300 rpm) for 2 h. […] The immunoreaction was stopped with 100 μL ABTS Stop Solution and measured at 405 nm against 100 μL ABTS solution+100 μL ABTS stop solution as a blank (reference wavelength 490 nm) using Spectra Max190 microplate reader (Molecular Devices). […]
The first set of eight-well chamber slides was processed for cleaved caspase-3 immunocytochemistry. […] Cleaved caspase-3 immunoreactivity in groups was then evaluated as described for αSMA in the HSOCRE section. […]
(In general: In an ELISA, binding on a coated surface is turned into a signal by an enzyme label.)

SMILES strings stand for the structures. Entries after “also recorded” stand apart in the source; their conditions may differ.

The molecule `C#C[C@]1(O)CC[C@H]2[C@@H]3CCC4=CC(=O)CC[C@@H]4[C@H]3C(=C)C[C@@]21CC` [ETO, etonogestrel] came in with a BrdU incorporation in experiment [1] of 0.40±0.03. The apoptotic index result in experiment [2] is “unaffected; also recorded: did not affect”.

Take `CC(=O)O[C@]1(C(C)=O)CC[C@H]2[C@@H]3C[C@H](C)C4=CC(=O)CC[C@]4(C)[C@H]3CC[C@@]21C` [MPA, medroxyprogesterone acetate]: the BrdU incorporation in experiment [1] was 0.31±0.02. Besides, the apoptotic index entry in experiment [2] is recorded as “did not affect”; in experiment [2] (listed as WA), “unaffected”.

In turn, `CC(=O)[C@H]1CC[C@H]2[C@@H]3CCC4=CC(=O)CC[C@]4(C)[C@H]3CC[C@]12C` [P4, progesterone] returned a BrdU incorporation in experiment [1] of 0.71±0.05. Also, in experiment [2], the apoptotic index entry is given as “unaffected”.
